Where two headings read alike, the source gives them in different places.
How the values were obtained:
[1] = test system: bone loss due to limb immobilization; assay: Effects on bone loss due to limb immobilization in the rat (unilateral sciatic neurectomy, femoral ash weight); type: in vivo, rat (Sprague-Dawley male); settings: s.c. on two consecutive days before neurectomy; femoral ash weight difference, ten days post-neurectomy; ABP 0.5 mg/kg, PGE2/ABP 1.2 mg/kg, PGE2 0.7 mg/kg; n=6
Experimental: ABP, PGE2 /ABP, and PGE2 effects on bone loss due to limb immobilization in the rat
Male Sprague-Dawley rats weighing 270 grams (10-12 wks) were injected subcutaneously on two consecutive days prior to unilateral sciatic neurectomy induced hindlimb immobilization with the following doses: Vehicle (0.0 mg/kg), ABP (0.5mg/kg), PGE2 /ABP (1.2 mg/kg), PGE2 (0.7 mg/kg). Ten days post-neurectomy femora were removed at necropsy, dissected from the musculature, and placed in crucibles for incineration at 700° C. for twenty-four hours. Following incineration, the femoral ash content was weighed to the nearest 0.1 mg and the femoral ash weight differences between the control and immobilized hindlimb were calculated. Data represent mean ±SEM (n=6).

[2] = 1, 3 and 6 mg of PGE2/Kg/day, cited from earlier work
[3] = cited from earlier work
[4] = test system: bone formation; settings: systemic injection; cited from earlier work
[5] = cited from earlier work; remark: listed apart in the source
[6] = long term s.c. administration; cited from earlier work
[7] = cited from earlier work; remark: listed apart in the source
[8] = administered systemically; cited from earlier work
[9] = test system: bone resorption; type: in vivo, rat (Sprague-Dawley female); settings: equimolar weekly i.v. doses
Experimental: Lysylpyridinoline concentration is a measure of the breakdown of bone collagen.
Effect of PGE2 /ABP (IIIa) on bone resorption estimated by urinary excretion of lysypyridinoline in the rat
4 week old Sprague-Dawley female rats were injected intravenously via the tail vein with equimolar weekly doses of ABP (1 mg/kg, n=5), PGE2 /ABP (2.4 mg/kg, n=5), PGE2 (1.4 mg/kg, n=5), or saline (n=4) each. Filtered urine was collected after 12 and 26 days by housing individual rats in metabolic cages and providing them with food and water ad libitum. The overnight collections of urine were centrifuged at 1000×g for 10 minutes to remove any particles and the supernatant fluid was stored at -80° C. until analysis. Lysylpyridinoline (LP) was extracted from duplicate 1 ml aliquots by acid hydrolysis and subsequent low pressure CF-1 chromatography according to the method of Beardsworth et al. (1990). LP was further resolved by high pressure liquid chromatography according to the method of Uebelhart et al. (1990) and quantitated by comparison with an external standard. Urinary creatinine was measured using the picric acid colorimetric assay (Pharmacia Diagnostics Inc., Fairfield, N.J.). Final results were expressed as pmoles LP per μmole creatinine. […]

Compound | prevention of bone loss accompanying limb immobilization [1] | hard tissue mass ([2]; secondary spongiosa of proximal tibial metaphysis) | number of trabeculae [2] | periosteal and corticoendosteal bone mass ([3]; daily administration) | bone activity ([3]; s.c., 60, 120, and 180 days) | tibial diaphyseal bone mass ([3]; s.c., 60, 120, and 180 days) | bone formation in vivo [4] | serum phosphate levels ([5]; 1 mg of PGE2, rats) | side effects ([5]; s.c., rats, doses of 3 mg/Kg/day or higher) | soft tissue weight [6] | side effects after oral dosing [7] | serum alkaline phosphatase levels ([7]; oral) | half-life [8] | urinary lysylpyridinoline (LP) level versus vehicle ([9]; 12 days) | urinary lysylpyridinoline (LP) level versus vehicle ([9]; 26 days)
CCCCC[C@H](O)/C=C/[C@H]1[C@H](O)CC(=O)[C@@H]1C/C=C\CCCC(=O)O [PGE2] | no statistical difference | increase in hard tissue mass | increase in the number of trabeculae | increases periosteal and corticoendosteal bone mass and sustains the transient increase in bone mass | elevated bone activity | increased tibial diaphyseal bone mass | stimulated | significant decreases | diarrhea and flushing of the extremities along with weight loss | soft tissue weight increases in adrenal glands, liver, kidneys, and lungs | loose stools, diarrhea, vomiting, infected sclerae | increased serum alkaline phosphatase levels | short half-life | – | –
NCCCC(O)(P(=O)([O-])[O-])P(=O)(O)O.[Na+].[Na+] [ABP, 4-amino-1-hydroxybutylidene bisphosphonic acid disodium salt] | effective | – | – | – | – | – | – | – | – | – | – | – | – | lower levels of LPs | lower levels of LPs

Source: patent publication US5409911A, “Prostaglandin analog for treating osteoporosis” (Merck & Co., Inc., priority 1992, dated 1995)
